Values of other authors, collected in US9457026B2, “Methods for producing aripiprazole suspension and freeze-dried formulation” (OTSUKA PHARMACEUTICAL CO., LTD., priority 2007, dated 2016).

Conditions: room temperature

**Q.** Which aqueous solubility does the source give for O=C1CCc2ccc(OCCCCN3CCN(c4cccc(Cl)c4Cl)CC3)cc2N1 [Aripiprazole] here?
**A.** < 1 µg/mL
